Source: PMC5352362, “Molecular and functional evaluation of a novel HIF inhibitor, benzopyranyl 1,2,3-triazole compound” (Oncotarget, 2016)
Entries after “also recorded” stand apart in the source; their conditions may differ.

Legend:
[1] = system: HIF-1 (5xHRE-Luc reporter in HEK-293 cells); assay: Dual-luciferase HRE reporter assay under hypoxia; type: cell-based; conditions: Homo sapiens, HEK293, hypoxia 1% O2, 24 h, compared to hypoxic control, read-out: inhibition of hypoxia-induced HRE Luc reporter activity (HIF-1α transactivation)
Procedure: To identify active inhibitors of HIF-1α, a cell-based reporter assay was performed. HEK-293 cells were co-transfected with pGL3-5xHRE-Luc plasmid harboring five copies of hypoxia responsive element (HRE) from the VEGF gene promoter, and with pRL-SV40 encoding Renilla genes. The HRE-containing promoter of the HIF-1 target genes is regulated by HIF-1 activation. Transfected cells were treated with chemical compounds at 1 μM and were exposed to hypoxic conditions (1% O2) for 24 h, and then were assayed. Echinomycin (E), a well-known HIF-1α inhibitor, was used as a positive control. Compared to normoxic control conditions, hypoxia increased this luciferase reporter's activity by approximately three-fold.
Figure 1 Screening of 144 compounds from an in-house chemical library for inhibition of HIF-1 activity HEK-293 cells were co-transfected with luciferase reporter plasmids (pGL3-HRE-luciferase) and Renilla vector (pRL-SV40). Cells were exposed to hypoxic conditions in the presence or absence of chemicals for 24 h, and were then lysed for assays of luciferase activity. […]
HEK-293 cells were seeded onto 96-well plates at a density of 5 × 10^3 cells/well, and allowed to attach for 24 h. […] Firefly luminescence was measured using a microplate reader (Infinite M200 Pro, TECAN, Männedorf, Switzerland). […] Renilla luminescence was measured using a microplate reader. […]

[2] = system: Lewis lung carcinoma (LLC) cells; assay: Lewis lung carcinoma allograft in C57BL/6J mice with immunohistochemistry; type: in vivo, mouse
Procedure: HIF-1α is synthesized by growth factor signaling pathways, such as those of EGFR [30] [31]. Inhibition of HIF-1α in its pathways of synthesis, as well as in its pathway of degradation, would seem to make for a more efficient anti-cancer/anti-angiogenesis treatment. To confirm this, we performed a tumor allogaft experiment using Lewis lung carcinoma (LLC) cells. 1 × 10^6 LLC cells were inoculated into the mouse flank subcutaneously (s.c.), and treatment with Compound 12 (5 mg/kg) and/or gefitinib (an EGFR inhibitor, 50 mg/kg), via intraperitoneal (i.p.) administration, was performed every other day for 20 days. At Day 20, mice were sacrificed and tumor tissue was fixed in formaldehyde for 1 h for further histological examination. […] To confirm the effect of Compound 12 on angiogenesis, we analyzed angiogenesis using the Matrigel plug assay. […] To confirm the effects of Compound 12 on anti-angiogenesis, we sectioned the tumor tissues to determine microvessel density (MSD) via immunohistochemistry (using CD31 antibody).
Figure 6 Compound 12 suppressed allogaft tumor growth and enhanced the effects of a chemotherapeutic agent (A, B) Lewis lung carcinoma cells were inoculated into flanks of C57BL/6J mice (Day 0). From two days after inoculation, mice were treated intraperitoneally with Compound 12 (5 mg/kg body weight) and gefitinib (50 mg/kg body weight), three times a week, for 18 days and then sacrificed. Tumor size (A) and tumor weight (B) were measured three times a week and on the final day, respectively. Tumor masses were photographed and shown in box below the graph. **P < 0.05 versus control group. (C) Matrigel was treated with DMSO, Compound 12 (100 nM), and gefitinib (5 μM) and inoculated in the flank of C57BL/6J mice. After 10 days matrigel plug was removed and photographed. The content of hemoglobin was quantified and graphed. (D) Tumor tissue sections (10 μm) indicated were stained with H&E and immunostained with anti-CD31 antibody to detect microvessel density; CD31+ cell percentages were then calculated and graphed. Scale bar, 100 μm. **P < 0.05 versus control group. (E) Images and quantitative comparisons (graph) for hypoxic regions, immunostained CA9 protein, and microvessels (CD31+ cells) in tumor center regions are shown. Scale bar, 100 μm. **P < 0.05 versus control group. (F) Images and quantitative comparisons (graph) for Ki67+ proliferating cells in tumor center regions are shown. Scale bar, 100 μm. **P < 0.05 versus control group.
We determined levels of hypoxia in tissues via: 1) antibodies against the hypoxic cell marker pimonidazole (PIMO), and 2) checking expression levels of carbonic anhydrase (CA9), a downstream target of HIF-1.
LLC cells (1 × 10^6) were injected subcutaneously into the flanks of 6-week-old C57BL/6J mice (Day 0)(SLC, Japan). Tumor size and body weight were measured 3 time a week. Tumor tissues were removed at day 20 after completion of injection of vehicle or drugs and fixed with 4% paraformaldehyde (PFA). After tissue processing for frozen sample preparation protocol, samples were embedded in OCT compound and frozen quickly by liquid nitrogen. Frozen blocks were cut into 10 μm sections and stained with hematoxylin and eosin (H&E) for light microscopy. Additional tissue sections for immunohistochemistry were blocked with 5% goat serum in PBST (0.03% Triton X-100 in PBS) and then incubated for 3 h at RT with following primary antibodies, anti-CD31 and anti-Ki67. To detect the hypoxic area in the tumors, Hypoxyprobe-1™ (60 mg/kg, Natural Pharmacia International) was iv injected 90 min before tissue fixation. Tumors were harvested, sectioned and stained with FITC-conjugated anti-Hypoxyprobe antibody.

HIF-1α = HIF-1α (Homo sapiens, UniProt Q16665); assay: Western blot of HIF-1α protein in hypoxic HEK-293 cells; type: cell-based; conditions: HEK293, 1 nM, hypoxia 16 h, read-out: downregulation of HIF-1α protein expression
Chain of HIF-1α (Q16665 whole entry): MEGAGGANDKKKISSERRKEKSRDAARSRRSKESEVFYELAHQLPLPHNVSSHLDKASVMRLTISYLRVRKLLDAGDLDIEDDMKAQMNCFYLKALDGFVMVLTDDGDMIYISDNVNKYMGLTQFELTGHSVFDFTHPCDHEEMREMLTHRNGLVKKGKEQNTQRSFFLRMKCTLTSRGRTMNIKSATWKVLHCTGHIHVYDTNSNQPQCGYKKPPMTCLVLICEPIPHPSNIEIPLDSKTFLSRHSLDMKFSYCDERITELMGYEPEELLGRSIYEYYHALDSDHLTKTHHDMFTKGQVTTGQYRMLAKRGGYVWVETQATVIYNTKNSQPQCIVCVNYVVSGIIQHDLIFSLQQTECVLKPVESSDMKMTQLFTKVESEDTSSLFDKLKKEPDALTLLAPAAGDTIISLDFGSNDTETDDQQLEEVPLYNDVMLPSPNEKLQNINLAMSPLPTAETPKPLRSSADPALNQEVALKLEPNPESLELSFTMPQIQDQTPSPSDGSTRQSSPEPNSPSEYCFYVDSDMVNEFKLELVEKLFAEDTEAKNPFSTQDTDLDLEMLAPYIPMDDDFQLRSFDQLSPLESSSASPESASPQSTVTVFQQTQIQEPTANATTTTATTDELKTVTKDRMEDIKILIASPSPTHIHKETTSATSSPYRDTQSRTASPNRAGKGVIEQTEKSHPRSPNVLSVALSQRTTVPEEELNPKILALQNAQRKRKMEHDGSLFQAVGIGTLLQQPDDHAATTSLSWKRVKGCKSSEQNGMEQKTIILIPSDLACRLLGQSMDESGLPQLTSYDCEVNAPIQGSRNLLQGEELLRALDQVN
Procedure: (B, C) After HEK-293 cells (B) and A549 cells (C) were treated with Compound 12 (at concentrations of 0 nM, 0.1 nM, 1 nM, 10 nM, 100 nM, and 1000 nM) under hypoxic conditions for 16 h, expression of HIF-1α was determined by western blot analysis and then graphed. (D, E) Half maximal inhibitory concentration (IC50) values were calculated using GraphPad Prism software, using the quantified HIF-1α levels determined in B and C.
HEK-293 cells and A549 cells were treated with Compound 12, at 0.1–1000 nM concentrations, under hypoxic conditions for 16 h.
Proteins extracted from cells using PRO-PREP (iNtRon Biotech, South Korea) were separated by SDS-PAGE and transferred to a nitrocellulose membrane (Whatman, Maidstone, UK). Membranes were blocked with 5% skim milk in Tris-buffered saline (TBS) containing 0.1% Tween-20 for 30 min at room temperature (RT). After blocking, membranes were incubated with specific primary antibodies overnight at 4°C, followed by incubation with horseradish peroxidase-conjugated mouse- or rabbit-IgG for 1 h at RT. Antibody binding was detected using an enhanced chemiluminescence (ECL) kit (BioRad, Hercules, CA) according to the manufacturer's instructions. […]

inhibition at 0.001 µM (HIF-1α): ~30%
Compound: COc1ccc(-c2cn(CC3(C)C=Cc4cc([N+](=O)[O-])ccc4O3)nn2)cc1 (stereo not shown) [Compound 12, 4-(4-methoxyphenyl)-1-((2-methyl-6-nitro-2H-chromen-2-yl)methyl)-1H-1,2,3-triazole]
inhibition at 1 µM [1]: 50% | PIMO/CA9 levels in tumors, Compound 12 combined with gefitinib ([2]; LLC allograft tumor sections): decreased synergistically | levels of PIMO and CA9 in tumors, single agent ([2]; LLC allograft tumor sections): significantly diminished | microvessel density (MSD), CD31, Compound 12 combined with gefitinib ([2]; LLC allograft tumor sections): synergistically decreased MSD | microvessel density (MSD), CD31, single agent ([2]; LLC allograft tumor sections): significantly decreased MSD | cells expressing Ki-67 protein in tumors ([2]; LLC allograft tumor sections, single agent): significantly decreased | tumor growth, single agent ([2]; LLC allograft, C57BL/6J mice, i.p., Compound 12 5 mg/kg, gefitinib 50 mg/kg): inhibited tumor growth significantly | tumor weight ([2]; LLC allograft, i.p., 5 mg/kg, final day): significantly decreased | tumor growth, Compound 12 combined with gefitinib ([2]; LLC allograft, i.p., Compound 12 5 mg/kg plus gefitinib 50 mg/kg): significantly inhibited tumor growth and angiogenesis; also recorded: suppressed tumor growth more effectively than did either drug alone
